From ChEMBL document CHEMBL3745697, “Identification of azabenzimidazoles as potent JAK1 selective inhibitors” (Bioorg Med Chem Lett, 2016)
The source made the active and inactive calls. No cut-off for these calls is given here.

Experiments:
[1] = Cell cycle arrest in human SW620 cells assessed as accumulation at G2/M phase at 10 uM after 24 hrs by propidium iodide staining-based flow cytometric analysis (reference value: 17.4%); format: functional; conditions: SW-620
[2] = target: Cyclin-dependent kinase 2/cyclin E1 (Homo sapiens, UniProt P24941); assay: Inhibition of N-terminal 6His-tagged human recombinant full length CDK2 (1 to 304 residues)/Cyclin E1 (1 to 410 residues) expressed in insect cells using FL-Ahx-QSPKKG-CONH2 as substrate by microfluidic capillary electrophoresis method
[3] = Cell cycle arrest in human SW620 cells assessed as accumulation at Sub G1 phase at 1 uM after 24 hrs by propidium iodide staining-based flow cytometric analysis (reference value: 1.6%); format: functional; conditions: SW-620
[4] = Cell cycle arrest in human SW620 cells assessed as multi-nuclear cells at 1 uM after 24 hrs by propidium iodide staining-based flow cytometric analysis (reference value: 5%); format: functional; conditions: SW-620
[5] = Cell cycle arrest in human SW620 cells assessed as accumulation at G2/M phase at 1 uM after 24 hrs by propidium iodide staining-based flow cytometric analysis (reference value: 17.4%); format: functional; conditions: SW-620
[6] = Cell cycle arrest in human SW620 cells assessed as multi-nuclear cells at 10 uM after 24 hrs by propidium iodide staining-based flow cytometric analysis (reference value: 5%); format: functional; conditions: SW-620
[7] = target: Non-receptor tyrosine-protein kinase TYK2 (Homo sapiens, UniProt P29597); assay: Inhibition of N-terminal 6His-tagged human recombinant Tyk2
Chain of Non-receptor tyrosine-protein kinase TYK2 (P29597 whole entry): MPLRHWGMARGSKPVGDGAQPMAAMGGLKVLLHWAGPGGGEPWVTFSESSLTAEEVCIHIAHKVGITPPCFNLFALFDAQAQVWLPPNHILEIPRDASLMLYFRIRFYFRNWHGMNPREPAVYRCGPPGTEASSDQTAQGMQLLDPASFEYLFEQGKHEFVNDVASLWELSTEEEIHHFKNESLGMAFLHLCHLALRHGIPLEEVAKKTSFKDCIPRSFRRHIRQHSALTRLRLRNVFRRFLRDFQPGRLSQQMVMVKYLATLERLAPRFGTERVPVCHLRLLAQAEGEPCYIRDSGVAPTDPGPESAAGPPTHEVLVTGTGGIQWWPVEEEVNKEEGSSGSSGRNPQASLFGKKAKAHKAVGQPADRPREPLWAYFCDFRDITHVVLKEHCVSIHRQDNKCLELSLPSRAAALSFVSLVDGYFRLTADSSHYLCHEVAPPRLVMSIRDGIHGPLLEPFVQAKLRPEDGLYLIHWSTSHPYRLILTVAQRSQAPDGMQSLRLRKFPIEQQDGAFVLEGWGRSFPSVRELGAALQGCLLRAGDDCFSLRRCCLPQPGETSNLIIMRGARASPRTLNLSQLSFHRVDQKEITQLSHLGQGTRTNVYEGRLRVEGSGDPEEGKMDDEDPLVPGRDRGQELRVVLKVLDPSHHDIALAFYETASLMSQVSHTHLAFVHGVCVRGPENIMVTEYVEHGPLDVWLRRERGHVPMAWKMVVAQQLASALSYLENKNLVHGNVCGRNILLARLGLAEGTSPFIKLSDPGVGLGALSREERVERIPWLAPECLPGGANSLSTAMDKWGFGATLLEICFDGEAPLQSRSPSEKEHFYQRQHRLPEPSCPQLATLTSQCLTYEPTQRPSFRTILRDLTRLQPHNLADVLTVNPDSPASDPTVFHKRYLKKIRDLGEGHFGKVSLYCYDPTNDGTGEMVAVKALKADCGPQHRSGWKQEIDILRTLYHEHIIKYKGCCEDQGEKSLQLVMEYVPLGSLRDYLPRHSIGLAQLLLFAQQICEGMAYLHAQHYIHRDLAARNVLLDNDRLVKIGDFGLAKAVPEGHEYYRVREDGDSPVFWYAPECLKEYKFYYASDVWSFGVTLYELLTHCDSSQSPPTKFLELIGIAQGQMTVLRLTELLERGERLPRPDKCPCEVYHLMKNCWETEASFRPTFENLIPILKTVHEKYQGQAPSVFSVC

[8] = Cell cycle arrest in human SW620 cells assessed as accumulation at S phase at 10 uM after 24 hrs by propidium iodide staining-based flow cytometric analysis (reference value: 13.9%); format: functional; conditions: SW-620
[9] = Cell cycle arrest in human SW620 cells assessed as accumulation at S phase at 1 uM after 24 hrs by propidium iodide staining-based flow cytometric analysis (reference value: 13.9%); format: functional; conditions: SW-620
[10] = target: T1, Tyrosine-protein kinase JAK1 (Homo sapiens, UniProt P23458); assay: Inhibition of JAK1 in human NCI-H1975 cells assessed as reduction in STAT3 phosphorylation at 0.003 to 3 uM after 2 hrs by Western blot analysis; format: cell-based
T1 sequence (P23458 whole entry): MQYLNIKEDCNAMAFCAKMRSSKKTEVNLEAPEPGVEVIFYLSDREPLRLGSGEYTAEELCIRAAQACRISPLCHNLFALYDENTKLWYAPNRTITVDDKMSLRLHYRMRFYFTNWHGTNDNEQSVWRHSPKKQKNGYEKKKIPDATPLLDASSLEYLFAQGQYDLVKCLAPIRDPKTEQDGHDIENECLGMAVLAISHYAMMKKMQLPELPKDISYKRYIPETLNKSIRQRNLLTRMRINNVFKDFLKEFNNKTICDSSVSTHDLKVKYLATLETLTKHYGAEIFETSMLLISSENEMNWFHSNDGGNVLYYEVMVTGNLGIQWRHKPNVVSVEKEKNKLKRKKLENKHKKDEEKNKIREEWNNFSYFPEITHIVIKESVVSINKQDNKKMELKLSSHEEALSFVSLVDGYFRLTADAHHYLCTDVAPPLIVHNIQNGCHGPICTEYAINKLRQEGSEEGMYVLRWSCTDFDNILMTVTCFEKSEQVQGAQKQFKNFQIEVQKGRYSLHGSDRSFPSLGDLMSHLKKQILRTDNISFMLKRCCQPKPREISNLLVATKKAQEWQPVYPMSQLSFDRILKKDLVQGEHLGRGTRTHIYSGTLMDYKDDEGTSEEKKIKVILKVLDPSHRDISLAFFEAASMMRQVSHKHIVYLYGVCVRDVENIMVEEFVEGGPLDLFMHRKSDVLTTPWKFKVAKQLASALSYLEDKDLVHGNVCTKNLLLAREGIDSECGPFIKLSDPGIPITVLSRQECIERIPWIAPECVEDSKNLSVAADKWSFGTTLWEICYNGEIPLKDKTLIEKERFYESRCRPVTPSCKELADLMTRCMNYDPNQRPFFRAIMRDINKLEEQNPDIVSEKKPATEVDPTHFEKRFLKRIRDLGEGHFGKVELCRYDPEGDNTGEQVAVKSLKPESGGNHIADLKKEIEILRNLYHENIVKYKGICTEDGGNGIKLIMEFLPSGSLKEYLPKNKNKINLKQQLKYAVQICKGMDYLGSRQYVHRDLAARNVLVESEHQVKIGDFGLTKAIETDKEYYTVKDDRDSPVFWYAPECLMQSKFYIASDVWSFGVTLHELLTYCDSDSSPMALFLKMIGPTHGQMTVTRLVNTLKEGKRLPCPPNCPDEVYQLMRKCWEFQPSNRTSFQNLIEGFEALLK

Mus musculus [11] = assay: Inhibition of JAK1-mediated STAT3 phosphorylation in human NCI-H1975 cells xenografted in NCr nude mouse at 200 mg/kg, po administered as single dose after 8 hrs by Western blot analysis; format: functional, organism-based
[12] = target: T1, Tyrosine-protein kinase JAK1; assay: Inhibition of N-terminal GST-fused human recombinant JAK1 (866 to 1154 residues) expressed in insect cells using FITC-C6-KKHTDDGYMPMSPGVA-NH2 as substrate by microfluidic capillary electrophoresis method
[13] = target: T1, Tyrosine-protein kinase JAK1; assay: Inhibition of JAK1 in human NCI-H1975 cells assessed as reduction in STAT3 phosphorylation after 2 hrs; format: cell-based
[14] = Cell cycle arrest in human SW620 cells assessed as accumulation at G1 phase at 1 uM after 24 hrs by propidium iodide staining-based flow cytometric analysis (reference value: 61.4%); format: functional; conditions: SW-620
[15] = target: T2, Tyrosine-protein kinase JAK2 (Homo sapiens, UniProt O60674); assay: Inhibition of JAK2 in human HEL 92.1.7 cells assessed as reduction in STAT5 phosphorylation after 2 hrs by Western blot analysis; format: cell-based
T2 sequence (O60674 whole entry): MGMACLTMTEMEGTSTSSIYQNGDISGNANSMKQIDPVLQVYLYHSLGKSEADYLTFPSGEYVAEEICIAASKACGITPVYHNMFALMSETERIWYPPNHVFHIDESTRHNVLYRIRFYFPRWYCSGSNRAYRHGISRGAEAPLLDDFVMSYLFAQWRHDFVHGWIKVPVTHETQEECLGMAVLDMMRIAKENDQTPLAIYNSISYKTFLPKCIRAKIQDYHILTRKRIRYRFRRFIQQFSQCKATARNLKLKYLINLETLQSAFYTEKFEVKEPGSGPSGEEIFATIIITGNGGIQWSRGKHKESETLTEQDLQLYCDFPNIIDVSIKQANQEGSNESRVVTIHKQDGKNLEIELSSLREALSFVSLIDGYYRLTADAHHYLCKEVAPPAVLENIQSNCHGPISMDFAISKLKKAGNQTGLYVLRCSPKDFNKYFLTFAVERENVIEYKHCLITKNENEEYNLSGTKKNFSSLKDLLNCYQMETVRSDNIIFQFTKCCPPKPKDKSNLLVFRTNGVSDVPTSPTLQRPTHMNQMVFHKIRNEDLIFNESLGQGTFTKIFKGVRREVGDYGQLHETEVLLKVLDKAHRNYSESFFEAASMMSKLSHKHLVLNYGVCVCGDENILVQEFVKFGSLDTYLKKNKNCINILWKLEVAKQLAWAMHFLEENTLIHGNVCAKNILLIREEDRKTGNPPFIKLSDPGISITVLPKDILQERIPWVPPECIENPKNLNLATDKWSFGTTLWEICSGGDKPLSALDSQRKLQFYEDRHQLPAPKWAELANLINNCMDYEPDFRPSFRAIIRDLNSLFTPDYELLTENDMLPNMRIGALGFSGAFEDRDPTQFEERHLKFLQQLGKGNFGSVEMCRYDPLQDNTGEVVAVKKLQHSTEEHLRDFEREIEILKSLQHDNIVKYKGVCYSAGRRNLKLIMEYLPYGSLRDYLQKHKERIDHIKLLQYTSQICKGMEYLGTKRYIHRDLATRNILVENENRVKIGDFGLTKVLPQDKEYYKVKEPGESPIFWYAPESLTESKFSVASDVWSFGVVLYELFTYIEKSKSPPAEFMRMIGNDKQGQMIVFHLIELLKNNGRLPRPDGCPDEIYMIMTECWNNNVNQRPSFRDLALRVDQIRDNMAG

[16] = Cell cycle arrest in human SW620 cells assessed as accumulation at Sub G1 phase at 10 uM after 24 hrs by propidium iodide staining-based flow cytometric analysis (reference value: 1.6%); format: functional; conditions: SW-620
[17] = target: T2, Tyrosine-protein kinase JAK2; assay: Inhibition of N-terminal GST-fused recombinant JAK2 (831 to 1132 residues) (unknown origin) expressed in insect cells using 5FAM-GEEPLYWSFPAKKK-NH2 as substrate by microfluidic capillary electrophoresis method
Aurora kinase B = Aurora kinase B (Homo sapiens, UniProt Q96GD4); assay: Inhibition of GST-INCENP activated N-terminal 6His-tagged human recombinant full length Aurora B (1 to 344 residues) expressed in baculovirus expression system using 5FAM-LRRASLG as substrate by microfluidic capillary electrophoresis method
Chain of Aurora kinase B (Q96GD4 whole entry, the tested form may be a part): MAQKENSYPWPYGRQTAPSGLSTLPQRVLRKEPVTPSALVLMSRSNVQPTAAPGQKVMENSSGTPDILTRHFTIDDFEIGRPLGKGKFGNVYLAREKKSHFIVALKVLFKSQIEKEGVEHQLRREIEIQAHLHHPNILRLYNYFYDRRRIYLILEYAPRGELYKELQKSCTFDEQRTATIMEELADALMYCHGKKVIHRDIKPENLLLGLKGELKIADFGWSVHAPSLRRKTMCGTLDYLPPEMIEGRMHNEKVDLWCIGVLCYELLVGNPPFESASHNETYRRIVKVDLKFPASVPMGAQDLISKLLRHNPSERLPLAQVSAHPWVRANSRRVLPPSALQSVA

Mus musculus [18] = assay: Inhibition of JAK1-mediated STAT3 phosphorylation in human NCI-H1975 cells xenografted in NCr nude mouse at 200 mg/kg, po administered as single dose after 1.5 hrs by Western blot analysis; format: functional
[19] = target: T3, Tyrosine-protein kinase JAK3 (Homo sapiens, UniProt P52333); assay: Inhibition of N-terminal GST-fused recombinant JAK3 (781 to 1124 residues) (unknown origin) expressed in insect cells using 5FAM-GEEPLYWSFPAKKK-NH2 as substrate by microfluidic capillary electrophoresis method
T3 sequence (P52333 whole entry): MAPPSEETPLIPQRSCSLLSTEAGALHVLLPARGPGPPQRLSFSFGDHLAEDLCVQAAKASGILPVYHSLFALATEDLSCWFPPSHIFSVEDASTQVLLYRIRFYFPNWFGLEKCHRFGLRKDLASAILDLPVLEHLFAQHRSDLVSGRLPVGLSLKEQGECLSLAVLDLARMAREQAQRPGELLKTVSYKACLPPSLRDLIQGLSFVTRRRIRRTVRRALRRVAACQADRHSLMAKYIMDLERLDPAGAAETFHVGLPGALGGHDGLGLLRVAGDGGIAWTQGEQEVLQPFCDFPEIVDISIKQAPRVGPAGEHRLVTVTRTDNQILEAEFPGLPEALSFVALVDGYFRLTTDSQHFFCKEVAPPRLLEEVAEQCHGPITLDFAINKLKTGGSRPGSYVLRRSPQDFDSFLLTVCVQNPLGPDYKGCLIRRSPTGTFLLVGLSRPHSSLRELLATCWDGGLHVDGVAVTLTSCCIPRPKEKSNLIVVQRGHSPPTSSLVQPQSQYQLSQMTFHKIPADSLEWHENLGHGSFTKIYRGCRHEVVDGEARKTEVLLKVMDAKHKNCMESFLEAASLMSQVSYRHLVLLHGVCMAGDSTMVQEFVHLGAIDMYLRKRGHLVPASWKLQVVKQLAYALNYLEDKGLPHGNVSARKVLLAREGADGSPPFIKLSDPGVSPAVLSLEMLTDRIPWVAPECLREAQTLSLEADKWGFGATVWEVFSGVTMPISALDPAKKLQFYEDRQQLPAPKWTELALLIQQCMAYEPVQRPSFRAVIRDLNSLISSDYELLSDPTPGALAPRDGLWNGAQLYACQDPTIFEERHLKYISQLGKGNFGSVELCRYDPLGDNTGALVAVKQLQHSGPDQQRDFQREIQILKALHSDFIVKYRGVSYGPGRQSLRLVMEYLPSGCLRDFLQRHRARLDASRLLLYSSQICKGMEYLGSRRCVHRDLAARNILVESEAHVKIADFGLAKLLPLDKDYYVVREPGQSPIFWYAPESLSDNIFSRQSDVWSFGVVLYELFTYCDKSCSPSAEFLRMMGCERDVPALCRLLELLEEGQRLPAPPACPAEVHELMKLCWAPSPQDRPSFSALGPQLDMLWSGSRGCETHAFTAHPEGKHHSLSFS

[20] = Cell cycle arrest in human SW620 cells assessed as accumulation at G1 phase at 10 uM after 24 hrs by propidium iodide staining-based flow cytometric analysis (reference value: 61.4%); format: functional; conditions: SW-620

## COc1cc(F)c(-c2nc3c(NCC4CCNCC4)c(Cl)cnc3[nH]2)cc1OC
[1]
  Activity: 38.9%
[2]
  IC50: 114 nM
[3]
  Activity: 2.5%
[4]
  Activity: 7.9%
[5]
  Activity: 27%
[6]
  Activity: 13.1%
[7]
  IC50: 28000 nM
[8]
  Activity: 7%
[9]
  Activity: 6.5%
[10]
  inhibition: Active
Mus musculus [11]
  inhibition: inactive
[12]
  IC50: 22 nM
[13]
  IC50: 39 nM
[14]
  Activity: 56.1%
[15]
  inhibition: inactive
[16]
  Activity: 10.8%
[17]
  IC50: > 22000 nM
Aurora kinase B
  IC50: 132 nM
Mus musculus [18]
  inhibition in vivo at 200 mg/kg: 80%
[19]
  IC50: 8300 nM
[20]
  Activity: 30.3%
